From ChEMBL document CHEMBL4665665, “4-Aryl Pyrrolidines as Novel Orally Efficacious Antimalarial Agents. Part 2: 2-Aryl-N-(4-arylpyrrolidin-3-yl)acetamides” (ACS Med Chem Lett, 2019)

test system: Plasmodium falciparum; assay: Antimalarial activity against CQ-sensitive Plasmodium falciparum 3D7 incubated for 72 hrs by SYBR Green-1 dye based fluorescence assay; format: functional, organism-based; details: not given

Structure (SMILES)	IC50 [nM]
CN(C)c1ccc(CC(=O)N[C@H]2CNC[C@@H]2c2ccc(C(F)(F)F)cc2)cc1 (racemic)	96
CN(C)c1ccc(CC(=O)N[C@H]2CNC[C@@H]2c2ccc(C(F)(F)F)cc2)cc1	860

same assay, conditions: Plasmodium falciparum, 3D7, 72 h

IC50 [nM]	Structure (SMILES)
1400	CN(C)c1ccc(CCC(=O)N[C@H]2CNC[C@@H]2c2ccc(C(F)(F)F)cc2)cc1 (racemic)
250	CN(C)c1ccc(CNC(=O)[C@H]2CNC[C@@H]2c2ccc(C(F)(F)F)nc2)cc1 (racemic)
63	CN(C)c1ccc(CC(=O)N[C@@H]2CNC[C@H]2c2ccc(C(F)(F)C(F)(F)F)nc2)cc1
2000	O=C(Cc1ccccc1)N[C@H]1CNC[C@@H]1c1ccc(C(F)(F)F)cc1 (racemic)
150	CN(C)c1ccc(CC(=O)N[C@@H]2CNC[C@H]2c2cc3ccccc3s2)cc1
3700	Cc1ccc(CC(=O)N[C@H]2CNC[C@@H]2c2ccc(C(F)(F)F)cc2)cn1 (racemic)
120	CN(C)c1ccc(CC(=O)N[C@@H]2CNC[C@H]2c2ccc(C(F)(F)F)c(Cl)c2)cc1
2900	Nc1ccc(CC(=O)N[C@H]2CNC[C@@H]2c2ccc(C(F)(F)F)cc2)cc1 (racemic)
4600	CN(C)c1ccc(CC(=O)N[C@@H]2CNC[C@H]2c2ccc(-c3ccccc3)cc2)cc1
1000	CN(C)c1ccc(CC(=O)N[C@@H]2CNC[C@H]2c2cc3cc(Cl)ccc3o2)cc1
1600	Cc1ccc(CC(=O)N[C@H]2CNC[C@@H]2c2ccc(C(F)(F)F)cc2)nc1 (racemic)
190	CN(C)c1ccc(CNC(=O)[C@H]2CNC[C@@H]2c2ccc(C(F)(F)F)cc2)cc1 (racemic)
3600	COc1ccc(CC(=O)N[C@H]2CNC[C@@H]2c2ccc(C(F)(F)F)cc2)nc1 (racemic)
140	CN(C)c1ccc(CC(=O)N[C@@H]2CNC[C@H]2c2ccc(C(F)(F)C(F)(F)F)cc2)cc1
760	COc1cccc(CC(=O)N[C@H]2CNC[C@@H]2c2ccc(C(F)(F)F)cc2)c1 (racemic)
230	CN(C)c1cccc(CC(=O)N[C@H]2CNC[C@@H]2c2ccc(C(F)(F)F)cc2)c1 (racemic)
59	CN(C)c1ccc(CC(=O)N[C@@H]2CNC[C@H]2c2cccc(S(F)(F)(F)(F)F)c2)cc1
210	CN(C)c1ccc(CC(=O)N[C@H]2CNC[C@@H]2c2ccc(C(F)(F)F)nc2)cc1 (racemic)
140	CN(C)c1ccc(CC(=O)N[C@@H]2CNC[C@H]2c2cc3ccccc3o2)cc1
270	CN(C)c1ccc(CC(=O)N[C@@H]2CNC[C@H]2c2cc3cc(F)ccc3o2)cc1
140	CN(C)c1ccc(CC(=O)N[C@@H]2CNC[C@H]2c2ccc(Br)cc2)cc1

More lines, now with the values behind:

Structure (SMILES)	IC50 [nM]
COc1ccc(CC(=O)N[C@H]2CNC[C@@H]2c2ccc(C(F)(F)F)cc2)cn1 (racemic)	2200
Cc1cccc(CC(=O)N[C@H]2CNC[C@@H]2c2ccc(C(F)(F)F)cc2)c1 (racemic)	370
CN(C)c1ccc(CC(=O)N[C@@H]2CNC[C@H]2c2ccc(C(C)(C)C)cc2)cc1	120
Cc1ccc(CC(=O)N[C@H]2CNC[C@@H]2c2ccc(C(F)(F)F)cc2)cc1 (racemic)	230
CN(C)c1ccc(CC(=O)N[C@@H]2CNC[C@H]2c2ccc(C(C)(F)F)nc2)cc1	60
CC(C)c1ccc(CC(=O)N[C@H]2CNC[C@@H]2c2ccc(C(F)(F)F)cc2)cc1 (racemic)	600
CN(C)c1ccc(CC(=O)N(C)[C@@H]2CNC[C@H]2c2ccc(C(F)(F)F)cc2)cc1	200
C[C@@H]1CC[C@H]2[C@@H](C)C(=O)O[C@@H]3O[C@@]4(C)CC[C@@H]1[C@]32OO4 [ARTEMISININ]	33
CN1C[C@@H](N(C)C(=O)Cc2ccc(N(C)C)cc2)[C@H](c2ccc(C(F)(F)F)nc2)C1 (racemic)	1400
CN(C)c1ccc(CC(=O)N[C@H]2CNC[C@@H]2c2ccc(C(C)(F)F)cc2)cc1	440
COc1ccc(CC(=O)N[C@H]2CNC[C@@H]2c2ccc(C(F)(F)F)cc2)cc1 (racemic)	350
CN(C)c1ccc(CC(=O)N[C@H]2CNC[C@@H]2c2ccc(S(F)(F)(F)(F)F)cc2)cc1	1200

test system: not listed separately; assay: Plasma concentration in NIH mouse infected with Plasmodium chabaudi ASS at 10 mg/kg, po qd for 4 days starting from 4 hrs post-parasite inoculation and measured at 1 hr post-dosing on day 4 by LC/MS analysis; format: ADME, organism-based; details: dose 10 mg/kg/day, time 4 day

concentration at 96 h [nM]	Structure (SMILES)
80.7	CCN(CC)CCCC(C)Nc1ccnc2cc(Cl)ccc12 (stereo not given) [CHLOROQUINE]

test system: Plasmodium chabaudi; assay: Antimalarial activity against Plasmodium chabaudi ASS infected in NIH mouse assessed as inhibition of parasitemia at 10 mg/kg, po qd for 4 days starting from 4 hrs post-parasite inoculation and measured at 24 hrs after last-drug treatment by Peter's 4-day suppressive test relative to control; format: functional; details: 96 h

Structure (SMILES)	inhibition in vivo at 10 mg/kg/day [%]
CCN(CC)CCCC(C)Nc1ccnc2cc(Cl)ccc12 (stereo not given) [CHLOROQUINE]	99.9

test system: not listed separately; assay: Plasma concentration in NIH mouse infected with Plasmodium chabaudi ASS at 10 mg/kg, po qd for 4 days starting from 4 hrs post-parasite inoculation and measured at 6 hrs post-dosing on day 4 by LC/MS analysis; format: ADME, organism-based; details: dose 10 mg/kg/day, time 4 day

concentration at 96 h [nM]	Structure (SMILES)
83.4	CCN(CC)CCCC(C)Nc1ccnc2cc(Cl)ccc12 (stereo not given) [CHLOROQUINE]

test system: not listed separately; assay: Plasma concentration in NIH mouse infected with Plasmodium chabaudi ASS at 10 mg/kg, po qd for 4 days starting from 4 hrs post-parasite inoculation and measured at 24 hrs post-dosing on day 4 by LC/MS analysis; format: ADME, organism-based; details: dose 10 mg/kg/day, time 4 day

concentration at 96 h [nM]	Structure (SMILES)
68.6	CCN(CC)CCCC(C)Nc1ccnc2cc(Cl)ccc12 (stereo not given) [CHLOROQUINE]

test system: Plasmodium chabaudi; assay: Antimalarial activity against Plasmodium chabaudi ASS infected in NIH mouse assessed as inhibition of parasitemia at 30 mg/kg, po qd for 4 days starting from 4 hrs post-parasite inoculation and measured at 24 hrs after last-drug treatment by Peter's 4-day suppressive test relative to control; format: functional; details: 96 h

Structure (SMILES)	inhibition in vivo at 30 mg/kg/day [%]
C[C@H](NC(=O)[C@H]1CNC[C@@H]1c1ccc(C(F)(F)F)cc1)c1ccc(N(C)C)cc1	92.2
